Test results taken from the NIST ThermoML archive (doi:10.1016/j.fluid.2014.05.033).
Several values for one entry are separate records, joined by “and”; a condition that tells them apart may be missing. Equal entries are not always repeated. ± gives the expanded uncertainty stated by the source.

Experiments:
[1] = for kinematic viscosity / mass density: 101.33 kPa, Liquid; for kinematic viscosity: Capillary tube (Ostwald / Ubbelohde) method; for mass density: Vibrating tube method; for Normal melting temperature: Crystal, visual observation
[2] = refractive index (Na D-line) (dimensionless); conditions: 101.33 kPa, Liquid, Standard Abbe refractometry

SMILES | kinematic viscosity ([1]; 288.15 K) [m2/s] | mass density ([1]; 288.15 K) [kg/m3] | kinematic viscosity ([1]; 293.15 K) [m2/s] | mass density ([1]; 293.15 K) [kg/m3] | kinematic viscosity ([1]; 298.15 K) [m2/s] | mass density ([1]; 298.15 K) | kinematic viscosity ([1]; 303.15 K) [m2/s] | mass density ([1]; 303.15 K) [kg/m3] | kinematic viscosity ([1]; 308.15 K) [m2/s] | mass density ([1]; 308.15 K) [kg/m3] | kinematic viscosity ([1]; 313.15 K) [m2/s] | mass density ([1]; 313.15 K) [kg/m3] | kinematic viscosity ([1]; 318.15 K) [m2/s] | mass density ([1]; 318.15 K) [kg/m3] | refractive index ([2]; 288.15 K) | refractive index ([2]; 293.15 K) | refractive index ([2]; 298.15 K) | refractive index ([2]; 303.15 K) | refractive index ([2]; 308.15 K) | Normal melting temperature [1] | also measured
COc1ccccc1 [anisole] | 1.123e-06 ± 7e-09 | 996.56 ± 0.04 | 1.041e-06 ± 6e-09 | 991.95 ± 0.04 | 9.71e-07 ± 6e-09 | 989.42 ± 0.04 kg/m3 and 989.09 ± 0.04 kg/m3 | 8.99e-07 ± 6e-09 | 983.04 ± 0.05 | 8.39e-07 ± 5e-09 | 978.34 ± 0.05 | 7.89e-07 ± 5e-09 | 973.62 ± 0.05 | 7.4e-07 ± 5e-09 | 969.99 ± 0.05 | 1.5198 ± 0.0004 | 1.5169 ± 0.0004 | 1.5143 ± 0.0004 | 1.5117 ± 0.0004 | 1.5092 ± 0.0004 | – | refractive index ([2]; 313.15 K): 1.5063 ± 0.0004; refractive index ([2]; 318.15 K): 1.5041 ± 0.0004
COC(=O)OC [dimethyl carbonate] | 6.05e-07 ± 4e-09 | 1077.16 ± 0.07 | 5.7e-07 ± 4e-09 | 1070.18 ± 0.07 | 5.41e-07 ± 4e-09 | 1063.26 ± 0.06 kg/m3 | 5.08e-07 ± 4e-09 | 1056.23 ± 0.06 | 4.76e-07 ± 4e-09 | 1049.85 ± 0.06 | 4.56e-07 ± 4e-09 | 1043.04 ± 0.06 | 4.33e-07 ± 4e-09 | 1036.51 ± 0.05 | 1.371 ± 0.0004 | 1.3688 ± 0.0004 | 1.3664 ± 0.0004 | 1.364 ± 0.0004 | 1.3618 ± 0.0004 | 5.01 ± 0.16 °C | refractive index ([2]; 313.15 K): 1.3595 ± 0.0004; refractive index ([2]; 318.15 K): 1.357 ± 0.0004
O=C(Oc1ccccc1)Oc1ccccc1 [diphenyl carbonate] | – | – | – | – | – | – | – | – | – | – | – | – | – | – | – | – | – | – | – | 80.81 ± 0.16 °C and 81.81 ± 0.16 °C | mass density ([1]; 358.15 K): 1113.12 ± 0.09 kg/m3
CO [methanol] | 7.51e-07 ± 5e-09 | 796.5 ± 0.11 | 7.03e-07 ± 5e-09 | 791.46 ± 0.12 | 6.6e-07 ± 4e-09 | 786.59 ± 0.12 kg/m3 and 786.69 ± 0.12 kg/m3 | 6.21e-07 ± 4e-09 | 782.03 ± 0.12 | 5.79e-07 ± 4e-09 | 777.29 ± 0.12 | 5.49e-07 ± 4e-09 | 772.51 ± 0.12 | 5.19e-07 ± 4e-09 | 767.69 ± 0.12 | 1.3306 ± 0.0004 | 1.3285 ± 0.0004 | 1.3265 ± 0.0004 | 1.3245 ± 0.0004 | 1.3227 ± 0.0004 | -98.00 ± 0.16 °C | refractive index ([2]; 313.15 K): 1.3208 ± 0.0004; refractive index ([2]; 318.15 K): 1.3188 ± 0.0004
COC(=O)Oc1ccccc1 [methyl phenyl carbonate] | 5.143e-06 ± 2.8e-08 | 1153.93 ± 0.1 | 4.275e-06 ± 2.4e-08 | 1148.74 ± 0.1 | 3.665e-06 ± 2.1e-08 | 1143.24 ± 0.1 kg/m3 and 1143.63 ± 0.1 kg/m3 | 3.196e-06 ± 1.8e-08 | 1138.41 ± 0.1 | 2.816e-06 ± 1.6e-08 | 1133.26 ± 0.1 | 2.486e-06 ± 1.4e-08 | 1128.11 ± 0.09 | 2.235e-06 ± 1.3e-08 | 1122.97 ± 0.09 | 1.4991 ± 0.0004 | 1.4965 ± 0.0004 | 1.4942 ± 0.0004 | 1.492 ± 0.0004 | 1.4896 ± 0.0004 | -31.00 ± 0.16 °C | refractive index ([2]; 313.15 K): 1.4873 ± 0.0004; refractive index ([2]; 318.15 K): 1.4853 ± 0.0004
Oc1ccccc1 [phenol] | – | – | – | – | – | – | – | – | – | – | – | 1058.51 ± 0.06 | – | – | – | – | – | – | – | 40.90 ± 0.16 °C | –
